Blank lines part the entries; values can stand above or below the compound they belong to.
Assays:
[1] = target: T1, cTnC isolated from cattle cardiac muscle (Bos taurus, UniProt P63315); assay: Affinity of Ca^2+ to cTnC by fluorescent probe dansyl chloride labeling; assay type: binding; settings: for Influence on the affinity curve of cTnC to Ca^2+: 50 μmol/L; for Effect on the cTnC-Ca^2+ affinity curve: 55 μmol/L (FIG. 4)
T1 construct: cTnC isolated from cattle cardiac muscle; from tissue; host or cells: cattle cardiac muscle
Text: The effect of PPTA-I on the affinity of Ca^2+ to cTnC isolated from cattle cardiac muscle was studied by fluorescent probe dansyl chloride labeling to discuss the calcium sensitization mechanisms of piperphentonamine hydrochloride, and compared the results to the already known calcium sensitizers MCI-154 and sulmazole (Sul).

[2] = conventionally known; cited from earlier work
[3] = Solubility and stability of piperphentonamine hydrochloride in water for injection; assay type: physicochemical
Text: Piperphentonamine hydrochloride with the molecular formula C21H23NO4.HCl has a molecular weight of […], batch No. 2001803, provided by Guangzhou Zhongwei Biotechnology Ltd Company. Its preparation method is described in Chinese patent No. 02125318.8. […] In order to achieve the lyophilized powder for injection with good redissolving ability and stability, piperphentonamine hydrochloride and excipient need to be dissolved in water for injection with pH 1.5 to 5.5 and then lyophilized, especially preferred water for injection with pH 2 to 3.

[4] = system: myocardial ischemia-reperfusion injury in cats; assay: Myocardial ischemia-reperfusion injury in cats in vivo (coronary artery arrest 30 min, reperfusion 60 min); design: species or system cat; settings: 1.3 mg/kg
Experimental: In order to further evaluate the protective effect of PPTA on myocardium injured by ischemia-reperfusion, a pathological model of myocardial ischemia-reperfusion injury in cats in vivo was established by arrest the coronary artery for 30 min, then reperfusion for 60 min, studying the effects on blood biochemistry, myocardium ultrastructure, etc.

[5] = system: cat heart failure model induced by verapamil; assay: Cardiac hemodynamic parameters in cat heart failure model induced by verapamil, intravenous administration; assay type: in vivo; settings: 0.1 mg/kg; for +dP/dt max, Change, % / Cardiac contractility, Change % / HR, Change % / LVEDP, Change, % / LVSP, Change, % / MAP, Change % / −dP/dt max, Change, %: vs. baseline
Experimental: To study the therapeutic effect of the novel cardiotonic and vasodilator PPTA-I on heart failure, the cardiac hemodynamic parameters were determined by a polygraph in cat heart failure model induced by verapamil.

[6] = treated by sonication and heating

Compound: O=C1CCC(c2ccc(Nc3ccncc3)cc2)=NN1 [MCI-154]
Influence on the affinity curve of cTnC to Ca^2+ [1]: no significant influence
Effect on the cTnC-Ca^2+ affinity curve [1]: no significant effect

Compound: COc1ccc(CCN(C)CCCC(C#N)(c2ccc(OC)c(OC)c2)C(C)C)cc1OC (stereo not drawn) [verapamil]
Score of myocardium pathological change ([4]; injury control 2.5 ± 0.55): 1.3 ± 0.18
Content of cTnI ([4]; serum, injury control 2.3 ± 0.62): 1.4 ± 0.21
Content of MDA ([4]; serum, injury control 86 ± 17): 65 ± 12 nmol/L
CPK activity ([4]; serum, injury control 385 ± 75): 271 ± 80

Compound: Cc1[nH]c(=O)c(C#N)cc1-c1ccncc1 [Milrinone]
+dP/dt max increased by at most [5]: 61±26%
Effect on HRs [5]: did not affect
Effect on LVSP, LVEDP and −dP/dt max [5]: without changing
MAP decreased by [5]: 10%
Period of +dP/dt max increase [5]: over 20 minutes
Period of the effect on MAP and cardiac contractility [5]: 5 min
+dP/dt max, Change, % ([5]; 2 min): 18 ± 23 %
Cardiac contractility, Change % ([5]; 2 min): 38 ± 32 # %
HR, Change % ([5]; 2 min): 0 ± 5%
LVEDP, Change, % ([5]; 2 min): 1 ± 2%
LVSP, Change, % ([5]; 2 min): 4 ± 11%
MAP, Change % ([5]; 2 min): −4 ± 4 %
−dP/dt max, Change, % ([5]; 2 min): 0 ± 23%
+dP/dt max, Change, % ([5]; 5 min): 52 ± 24 ### %
Cardiac contractility, Change % ([5]; 5 min): 92 ± 80 # %
HR, Change % ([5]; 5 min): 2 ± 15%
LVEDP, Change, % ([5]; 5 min): 5 ± 16%
LVSP, Change, % ([5]; 5 min): 5 ± 15%
MAP, Change % ([5]; 5 min): −10 ± 8 # %
−dP/dt max, Change, % ([5]; 5 min): 3 ± 19%
+dP/dt max, Change, % ([5]; 10 min): 61 ± 26 ### %
Cardiac contractility, Change % ([5]; 10 min): 71 ± 78 %
HR, Change % ([5]; 10 min): 2 ± 16%
LVEDP, Change, % ([5]; 10 min): −1 ± 5%
LVSP, Change, % ([5]; 10 min): 6 ± 17%
MAP, Change % ([5]; 10 min): −10 ± 6 ## %
−dP/dt max, Change, % ([5]; 10 min): 11 ± 20%
+dP/dt max, Change, % ([5]; 15 min): 54 ± 33 ## %
Cardiac contractility, Change % ([5]; 15 min): 58 ± 74 %
HR, Change % ([5]; 15 min): 3 ± 16%
LVEDP, Change, % ([5]; 15 min): −7 ± 16%
LVSP, Change, % ([5]; 15 min): 3 ± 18%
MAP, Change % ([5]; 15 min): −10 ± 8 # %
−dP/dt max, Change, % ([5]; 15 min): 8 ± 23%
+dP/dt max, Change, % ([5]; 20 min): 61 ± 45 # %
Cardiac contractility, Change % ([5]; 20 min): 61 ± 69 %
HR, Change % ([5]; 20 min): −13 ± 37%
LVEDP, Change, % ([5]; 20 min): 2 ± 11%
LVSP, Change, % ([5]; 20 min): 4 ± 22%
MAP, Change % ([5]; 20 min): −8 ± 12%
−dP/dt max, Change, % ([5]; 20 min): −4 ± 22%

Continued, in another order:

Shift of cTnC-Ca^2+ affinity curve to the left compared with the control curve ([1]; 55 μmol/L (FIG. 3)): 0.2 pCa
Stability in water for injection ([3]; easy to degrade and turn yellow): not stable
Solubility in water for injection with pH 1.5 to 5.5 [3, 6]: easy to be dissolved
pH of water for injection with the best solubility and stability [3, 6]: 2 to 3
Solubility in water for injection ([3]; untreated): difficult to be dissolved
Compound: piperphentonamine hydrochloride
Shift of cTnC-Ca^2+ affinity curve ([1]; 15 μmol/L): slightly shifted to the left without statistical significance
Shift of cTnC-Ca^2+ affinity curve ([1]; 35 μmol/L): shifted to the left with statistical significance
Solubility in water [2]: insoluble or poor soluble in water

Influence on the affinity curve of cTnC to Ca^2+ [1]: no significant influence
Effect on the cTnC-Ca^2+ affinity curve [1]: no significant effect
Compound: COc1cc([S+](C)[O-])ccc1-c1nc2ncccc2[nH]1 (stereo not drawn) [Sul, sulmazole]
